Where “and” joins values, the source holds several entries; their conditions need not be identical. Equal entries are not always repeated.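 Protocol summary: plate cells (96-well), add compound at 5 concentrations, incubate 48 h, interpolate endpoints linearly. At the GI50, growth is halved. TGI denotes the concentration required for complete inhibition of growth.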
What was measured:
Test in all cases: inhibition of tumour cell growth, NCI panel, 48 h
HCC-2998 colon = tested on: HCC-2998 colon
MALME-3M melanoma = tested on: MALME-3M melanoma
BT-549 breast = tested on: BT-549 breast
HOP-62 NSCLC = tested on: HOP-62 NSCLC
SF-295 CNS = tested on: SF-295 CNS
T-47D breast = tested on: T-47D breast
UO-31 renal = tested on: UO-31 renal
SK-MEL-2 melanoma = tested on: SK-MEL-2 melanoma

Row | Compound | GI50 (HCC-2998 colon) | TGI (HCC-2998 colon) | GI50 (MALME-3M melanoma) | TGI (MALME-3M melanoma) | GI50 (BT-549 breast) | TGI (BT-549 breast) | GI50 (HOP-62 NSCLC) | TGI (HOP-62 NSCLC) | GI50 (SF-295 CNS) | TGI (SF-295 CNS) | GI50 (T-47D breast) | TGI (T-47D breast) | GI50 (UO-31 renal) | TGI (UO-31 renal) | GI50 (SK-MEL-2 melanoma) | TGI (SK-MEL-2 melanoma)
1 | CS(=O)(=O)Nc1cc(-c2ccc3ncnc(Nc4cccc(Cl)c4)c3c2)cnc1Cl | 246 nM | 1.79 µM | 98.5 nM | 0.82 µM | 272 nM | 3.28 µM | 220 nM | 5.29 µM | 0.335 µM | 2.2 µM | 23.7 nM | 0.635 µM | 105 nM | 1.86 µM | 0.345 µM | 2.05 µM
2 | COc1ccc2c(c1OC)O/C(=C\c1ncc([N+](=O)[O-])n1C)C2=O | 2160 nM | 4.73 µM | 1150 nM | 3.53 µM | 1770 nM | 4.46 µM | 3670 nM | 17.4 µM | 3.13 µM | 21.7 µM | > 70900 nM | > 100 µM | 957 nM | 4.39 µM | 0.681 µM | 1.72 µM
3 | CC1(C)N=C(N)N=C(N)N1c1cccc(CCc2ccccc2)c1 | 1690 nM | > 38.7 µM | 1040 nM | > 68.8 µM | 577 nM | > 46.7 µM | 1290 nM | > 100 µM | 0.604 µM | > 100 µM | 2950 nM | > 100 µM | > 100000 nM | > 100 µM | 1.94 µM | > 67.5 µM
4 | O=C1Nc2ccc3c(c2/C1=C\c1cc2c(cc1Br)OCO2)OCO3 | 1650 nM | > 100 µM | 423 nM | 4.16 µM | 710 nM | 39.5 µM | 393 nM | 2.07 µM | 0.527 µM | 2.5 µM | 969 nM | 6.58 µM | 191 nM | 2.13 µM | 3.4 µM | > 100 µM
5 | COc1cc2cc(Oc3cccc(NC(=O)Nc4cc(C(F)(F)F)cc(C(F)(F)F)c4)c3)c(C)nc2cc1OC | 1530 nM | 3.15 µM | 1100 nM | 3.46 µM | 1750 nM | 3.76 µM | 1350 nM | 2.88 µM | 0.481 µM | 1.94 µM | 1480 nM | 5.67 µM | 266 nM | 1.65 µM | 1.82 µM | 4.24 µM
6 | COc1cc2ncnc(Oc3cccc(NC(=O)Nc4cc(C(C)(C)C(F)(F)F)on4)c3)c2cc1OC | 2290 nM and 3280 nM | 14.9 µM and > 10 µM | 64.5 nM and 85.1 nM | 0.929 µM and 1.17 µM | 2400 nM and 3890 nM | 8.78 µM and > 10 µM | 2450 nM and 2530 nM | 16.8 µM and > 10 µM | 2.91 µM and 2.98 µM | 13.1 µM and > 10 µM | 1960 nM and 1670 nM | 11.7 µM and > 10 µM | 552 nM and 788 nM | 10.1 µM and > 7.68 µM | 0.443 µM and 0.565 µM | 2.26 µM and 3.06 µM
7 | CCOC(=O)[C@@H]1CSC(CC)=C(C(=O)O)N1 | > 100000 nM | > 100 µM | > 100000 nM | > 100 µM | > 100000 nM | > 100 µM | > 100000 nM | > 100 µM | > 100 µM | > 100 µM | > 100000 nM | > 100 µM | > 100000 nM | > 100 µM | > 100 µM | > 100 µM
8 | COc1cc(N(C)C)c(OC)cc1C=C1C=CC=C1 |  | > 100 µM |  | > 100 µM |  | > 100 µM |  | > 100 µM |  | > 100 µM |  | > 100 µM |  | > 100 µM |  | > 100 µM
9 | C=C1CC[C@H]2C(C)=CC[C@H]3C(=C)C(=O)O[C@@H]3[C@@H]12 |  | > 100 µM |  | > 100 µM |  | > 100 µM |  |  |  | > 100 µM |  | > 100 µM |  | > 100 µM |  | > 100 µM
10 | COc1cc(NC2CCCCC2O)c2nc(-c3ccc(Cl)cc3)ccc2c1 (stereo not drawn) | 13400 nM | > 100 µM | 7450 nM | 28 µM | 40700 nM | > 100 µM | 5960 nM | 46.7 µM | 2.8 µM | 12.1 µM | 4900 nM | > 100 µM | 6310 nM | 88.5 µM | 12.5 µM | 59.3 µM
11 | O=[N+]([O-])/C=C/c1ccc(Cl)cc1[N+](=O)[O-] | 1850 nM | 3.41 µM | 4150 nM | 16.7 µM | 3470 nM | 10.2 µM | 3040 nM | 13.4 µM | 6.72 µM | 21.6 µM | 2480 nM | 5.96 µM | 1550 nM | 3.82 µM | 12.3 µM | 39.7 µM
12 | COc1cc(/C=C2\SC(N3CCCCC3)=NC2=O)ccc1OCCCCCCOc1ccc(/C=C2\SC(N3CCCCC3)=NC2=O)cc1OC | 13600 nM | 27 µM | 3870 nM | 30 µM | 4290 nM | 22.8 µM | 4050 nM | 16.3 µM | 13.7 µM | 47.5 µM | 8900 nM | 44.5 µM | 13200 nM | 39.3 µM | 21.8 µM | 93.9 µM
13 | COc1cc2c3cc1Oc1c(OC)c(OC)cc4c1C(Cc1ccc(O)c(c1)Oc1ccc(cc1)CC3N(C)CC2)N(C)CC4 (stereo not drawn) | 10900 nM | 37.3 µM and 32.1 µM | 8170 nM | > 100 µM and 23.8 µM | 14700 nM | 60.1 µM and 35.6 µM | 24300 nM | > 100 µM and 64.8 µM | 13.3 µM | 59.1 µM and 29.8 µM | 15000 nM | 75.7 µM and 36.2 µM | 13900 nM | 35.7 µM and 31.9 µM | 20.2 µM | > 100 µM and 36.6 µM
14 | C[As](C)SC1OCC(O)C(O)C1O (stereo not drawn) | 224 nM | 0.466 µM | 69 nM | 0.366 µM | 363 nM | 1.5 µM | 2150 nM | 9.52 µM | 7.18 µM |  | 158 nM | 4.74 µM | 109 nM | 0.53 µM | 0.58 µM | 2.53 µM
15 | COc1ccc(-c2c(N)noc2-c2cc(OC)c3c(c2)OCCO3)cc1 | 17.3 nM | 0.902 µM | 23600 nM | > 100 µM | 28.5 nM | 1.35 µM | < 12.3 nM | > 54.8 µM | < 0.01 µM | 22.3 µM | 640 nM | 41.2 µM | < 24 nM | 56.9 µM | < 0.01 µM | 67.5 µM
16 | COc1ccc(-c2cc(/C=C/C(=O)c3ccc(N)cc3)[nH]n2)cc1 | 1830 nM | 3.36 µM | 2180 nM | 6.22 µM | 1740 nM | 4.78 µM | 2800 nM | 7.49 µM | 3.09 µM | 13.1 µM | 1470 nM | 9.77 µM | 1180 nM | 2.56 µM |  | 
17 | CCOC(=O)c1c(NC(=O)c2ccc(Cl)cc2)sc2c(CN(C)C)c(O)ccc12 | 1830 nM | 3.84 µM | 1850 nM | 3.86 µM | 13400 nM | > 100 µM | 5580 nM | 27.1 µM | 3.79 µM | 16.4 µM | 4880 nM | > 100 µM | 4880 nM | 25.7 µM | 6.51 µM | 41.1 µM
18 | OCC(O)C(O)C(O)C(O)c1nnc2c(-c3ccccc3)nc3ccccc3n12 (stereo not drawn) | 62400 nM | > 100 µM | 38700 nM | > 100 µM | 56400 nM | > 100 µM | > 100000 nM | > 100 µM | > 100 µM | > 100 µM | 28600 nM | > 100 µM | > 100000 nM | > 100 µM | > 100 µM | > 100 µM
19 | N#Cc1cc(S(=O)(=O)Nc2nc3cc(Cl)ccc3o2)c(SCc2ccccc2)cc1Cl | 12600 nM | 25.1 µM |  |  | 13400 nM | 26.2 µM | 12300 nM | 24.8 µM | 14.5 µM | 28 µM | 15900 nM | 30.6 µM | 12300 nM | 24.7 µM | 12.4 µM | 24.8 µM
20 | CC1(C)C2CCC13C(=O)C1OC3(C2)C2C(=O)c3c(ccc4c3ccc3ccccc34)C(=O)C12 (stereo not drawn) | > 100000 nM | > 100 µM | 25200 nM | > 89.2 µM | > 80300 nM | > 100 µM | > 100000 nM | > 100 µM | 13.2 µM | 92.6 µM | 48000 nM | > 100 µM | > 100000 nM | > 100 µM | > 100 µM | > 100 µM
21 | CC[C@H]1OC(=O)[C@H](C)[C@@H](O[C@H]2C[C@@](C)(OC)[C@@H](O)[C@H](C)O2)[C@H](C)[C@@H](O[C@@H]2O[C@H](C)C[C@H](N(C)C)[C@H]2O)[C@](C)(OC)C/C(C)=C2/O[C@@]1(C)C=C2C | 1140 nM | 2.53 µM | 1580 nM | 2.97 µM | 1660 nM | 3.28 µM | 2310 nM | 4.74 µM | 1.85 µM | 3.35 µM | 1960 nM | 4.56 µM | 1370 nM | 2.65 µM | 1.85 µM | 3.73 µM
22 | CCOc1ccc2cc(-c3nn(CC4CCNCC4)c4ncnc(N)c34)ccc2c1 | 17100 nM | 31.5 µM |  |  | 13400 nM | 27.6 µM | 16300 nM | 39.4 µM | 14.8 µM | 29.5 µM | 18200 nM | 50.5 µM | 5610 nM | 20.7 µM | 15.8 µM | 29.8 µM

— PubChem BioAssay (NCI)
